The test system of one test is μ receptors. As to conditions: cited from earlier work.
The test system of another test is enkephalins. Particulars: peripheral administration; Bertolucci et al., 1992; cited from earlier work.
For test [1], the system named is all known opioid receptor subtypes. Particulars: cited from earlier work.
Another test concerns κ and ε sites. As to conditions: brain; Chang et al., 1981; cited from earlier work.
The next test deals with ε receptors. Briefly: inhibition of cAMP formation in BHK cells expressing ε receptors. It is filed as cell-based, human.
The next test has as its target T1, ε opioid receptor (Homo sapiens, UniProt P48145).
T1 construct: a 2 kb fragment was removed from the 5' untranslated region of the gene and the shortened insert (2.5 kb) was subcloned; expressed in transfected cells; host or cells: COS and BHK cells (pRC/CMV vector)
T1 sequence (P48145 1-328 S296T): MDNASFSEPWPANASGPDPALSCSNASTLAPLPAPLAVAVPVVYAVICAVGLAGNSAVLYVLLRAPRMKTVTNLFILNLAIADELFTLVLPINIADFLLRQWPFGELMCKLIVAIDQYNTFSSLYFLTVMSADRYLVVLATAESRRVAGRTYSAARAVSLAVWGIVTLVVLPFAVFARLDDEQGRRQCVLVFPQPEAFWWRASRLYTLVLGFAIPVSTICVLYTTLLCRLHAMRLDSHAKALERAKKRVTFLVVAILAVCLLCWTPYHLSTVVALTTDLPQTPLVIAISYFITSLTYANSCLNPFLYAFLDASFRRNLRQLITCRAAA
Kind of test: ligand affinity/interaction profile of the cloned receptor. It is filed as binding.

Test [2] deals with U-69, 593 insensitive benzoinorphan site. As to conditions: Nock et al., 1993; cited from earlier work.

On to `CN1CC[C@]23c4c5ccc(O)c4O[C@H]2[C@@H](O)C=C[C@H]3[C@H]1C5` [Morphine], for which the “interaction with μ receptors (in words)” value in the test with μ receptors is “interacts principally with μ receptors”. Moreover, in the test with enkephalins, the “release of enkephalins (in words)” value is “induces release of enkephalins”. With `CCC12CCN(CC3(O)CC3)C(Cc3ccc(O)cc31)C2(C)C` (stereo not shown) [[^3 H]bremazocine], the “affinity for all known opioid receptor subtypes (in words)” value in test [1] is listed as “high affinity”. Regarding `CC[C@]12CCN(CC3CC3)[C@H](C(=O)c3ccc(O)cc31)[C@@H]2C` [ethylketocyclazocine], the “labelling of opioid binding sites (in words)” value in the test on κ and ε sites is given as “label two populations of non-μ, non-δ opioid binding sites”. Take `CN1CC[C@]23CCCC[C@H]2[C@H]1Cc1ccc(O)cc13` [levorphanol]: the “inhibition of cAMP formation” value in the test on ε receptors is listed as “inhibition of cAMP formation”. Consider “β-endorphin: endogenous opioid peptide with high affinity for the ε receptor”, for which the “affinity of the receptor for the ligand (in words)” value in the test with ε opioid receptor was “high affinity”. In addition, the “affinity for the U-69,593 insensitive site (in words)” value in test [2] is given as “high affinity”.

Values taken from patent US5591602A (priority 1993, dated 1997).
